According to patent US6489307B1, “Antisense compositions targeted to β1-adrenoceptor-specific mRNA and methods of use” (University of Florida, priority 1998, dated 2002):

Tests used:
Type in all cases: in vivo, rat (SHR)
[1] = system: plasma Ang II; assay: Plasma Ang II radioimmunoassay
Description: Plasma Ang II levels were measured by radioimmunoassay as previously described (Phillips and Kimura, 1988).

[2] = system: spontaneously hypertensive rats; assay: Left ventricular hypertrophy after 2-month treatment; conditions: end of 2-month treatment; vs controls
Description: Adult spontaneously hypertensive rats (300-350 g) were treated with β1-AS-ODNs for more than 2 months. The blood pressure was reduced by 20-30 mmHg persistently throughout the treatment period (FIG. 11). Control animals receiving saline or INV-ODNs had no change in blood pressure. At the end of a 2-month treatment, the hearts were dissected and weighed.

[3] = Tissue histology after repeated injections; conditions: three repeated injections, more than 2 months
Excerpt: Safety profiles including liver transaminases, hematology, immune response and tissue pathology were investigated during three repeated injections of β1-AS-ODNs for extended periods of time.
Heart, liver, spleen and kidney were subjected to pathological examination after three repeated injections of β1-AS-ODN for more than 2 months.

[4] = system: β1-AR; assay: Quantitative autoradiography of brain, heart and kidney sections
Description: (§1) Four days after injection of 1 mg/kg β1-AS-ODN (n=6) or saline (n=6), rats were killed, and tissues were removed and frozen in dry ice. Coronal sections of brain, horizontal sections of heart, and sagittal sections of kidney (20 μm) were cut on a cryostat (Microm, Thornwood, N.Y.) at ^−20° C. and mounted on microscope slides. Every seventh slide was stained with hematoxylin and eosin for histology. Tissue sections were preincubated in Krebs buffer (mmol/L: NaCl 118.4, KCl 4.7, MgSO4 1.2, CaCl2 1.27 and NaH2PO4 10.0, pH 7.1) containing 0.1 mmol/L GTP, 0.1 mmol/L ascorbic acid, and 10 μmol/L PMSF for 30 minutes at 25° C. Sections were then incubated in Krebs buffer containing 0.1 mmol/L ascorbic acid and 10 μmol/L PMSF with 100 pmol/L ICYP at 25° C. for 150 minutes in the presence of 1 μmol/L (^−) propranolol, 100 nmol/L ICI 118,551 ([…]), or 100 nmol/L CGP20712A (β1-selective antagonist) to distinguish nonspecific, β1−, and β2-bindings. Labeled sections were rinsed in the same buffer, followed by two 15-min. washes at 37° C. in the buffer, and rinsed in distilled water at 25° C. (Matthews et al., 1994). Dried sections were then exposed to x-ray films. The images were quantified with a computerized image analysis system (MCID, Imaging Research) and normalized with ^125I standards.
(§2) Four days after injection of 0.5 mg/kg β1-AS-ODN (n=6) or saline (n=6), rats were euthanized, and the right kidneys were removed and frozen in dry ice. Sagittal sections of kidney (20 μm) were cut on a cryostat (Microm) at −20° C. and mounted on microscope slides. Every seventh slide was stained with hematoxylin and eosin for histology. Receptor autoradiography was performed as described (Matthews et al., 1994) with 100 pmol/L ICYP at 25° C. for 150 min. in the presence of 1 μmol/L (−)-propranolol, […] ICI 118,551 (β2-selective antagonist), or 100 nmol/L CGP 20712A (β1-selective antagonist) to distinguish nonspecific, β1, and β2-bindings. The images were quantified with a computerized image analysis system (MCID, Imaging Research) and normalized with ^125I standards.
(§3) Four days after injection of 1 mg/kg β1-AS-ODN (n=6) or saline (n=6), rats were sacrificed and tissues were removed and frozen in dry ice. Coronal sections of brain, horizontal sections of heart and sagittal sections of kidney (20 μm) were cut on a cryostat (Microm) at −20° C. and mounted on microscope slides. Every seventh slide was stained with haematoxylin and eosin for histology. Tissue sections were preincubated in Krebs buffer (NaCl 118.4 mM, KCl 4.7 mM, MgSO4 1.2 mM, CaCl2 1.27 mM, NaH2PO4 10.0 mM, pH 7.1) containing 0.1 mM guanosine triphosphate (GTP), 0.1 mM ascorbic acid and 10 μM phenylmethylsulfonylfluoride (PMSF) for 30 min at 25° C. Sections were then incubated in Krebs buffer containing 0.1 mM ascorbic acid and 10 μM PMSF with 100 pM I-CYP at 25° C. for 150 min, in the presence of 1 μM (−)propranolol, 100 nM IC1118,551 (β2-selective antagonist) or 100 nM CGP20712A (β1-selective antagonist) to distinguish non-specific, β1- and β2-bindings. Labeled sections were rinsed in the same buffer, followed by two 15-min washes at 37° C. in the buffer and rinsed in distilled water at 25° C. (Matthews et al., 1994). Dried sections were then exposed to X-ray films (Kodak Biomax-MR). The images were quantitated with a computerized image analysis system (MCID, Imaging Research) and normalized using ^125I-standards.

[5] = system: β2-ARs; assay: as above
Description: as §1, §2, §3

[6] = 4 days after i.v. administration

Substance: 5′-CCGCGCCCATGCCGA-3′ (phosphorothioate backbone, further chemistry not given here) [β1-AS-ODN, 15-mer antisense ODN targeted to the AUG start codon of rat β1-AR mRNA]
- plasma Ang II levels ([1]; day 4): not on day 4
- plasma Ang II levels ([1]; day 10 and day 18): significantly decreased
- left ventricular hypertrophy (LV/BW) [2]: significantly reduced
- pathological examination of heart, liver, spleen and kidney [3]: No immunopathology or organ damage
- overall density of β1-subtype in kidney ([4]; 4 days after 0.5 mg/kg, from 23.5±2.1): 15.4 ± 3.3 fmol/mg
- β1-AR density in renal cortex ([4]; 4 days after i.v. 1 mg/kg, from 26.4±3.1): 17.4 ± 3.3 fmol/mg
- β1-AR density in cardiac ventricles ([4]; 4 days after i.v. 1 mg/kg, from 30.2±2.1): 20.6 ± 2.5 fmol/mg
- distribution of β-ARs in forebrain and brain stem regions [4, 6]: no detectable changes
- distribution and concentration of β2-subtype in kidney ([5]; 4 days after 0.5 mg/kg): remained unchanged
- β2-ARs in any tissues [5, 6]: not affected
